Measured values published in US20080214509A1, “Methods for enhancing the efficacy of vascular disrupting agents” (priority 2007, published 2008).

Legend:
[1] = tested on: CEPs; experiment: Circulating endothelial progenitor cell (CEP) levels in peripheral blood by flow cytometry, non-tumor bearing mice; type: in vivo; settings: non-tumor bearing Balb/c mice; AMD-3100 5 mg/kg, CA1P 100 mg/kg; 4 hours or 24 hours post-treatment; FIG. 1
Experimental: Non-tumor bearing Balb/c mice (8-10 weeks old) were treated with one of the following agents: (i) 5 mg/kg of AMD-3100, a specific CXCR-4 antagonist; (ii) 100 mg/kg of CA1P, a VDA; or (iii) a combination of AMD-3100 and CA1P. At either 4 hours or 24 hours post-treatment, mice were bled from the retro-orbital sinus to evaluate levels of CEPs by flow cytometry.

[2] = tested on: Lewis-Lung Carcinoma (LLC) cells; experiment: Lewis-Lung Carcinoma tumors in irradiated mice transplanted with GFP+ bone marrow: necrosis and bone marrow cell incorporation; type: in vivo; settings: LLC tumors in C57Bl mice with GFP+ bone marrow; day 4
Experimental: To assess the incorporation of bone marrow proangiogenic cells to the tumor site, Lewis-Lung Carcinoma (LLC) cells were implanted into the flanks of lethally irradiated C57Bl mice that were previously transplanted with GFP+bone marrow tagged cells. When tumors reached 500 mm^3, treatment with CA1P, AMD-3100 or the combination of the two was initiated. AMD-3100 was given in a concentration of 5 mg/kg for 3 sequential days. On day 4, mice were sacrificed and tumors removed for the evaluation of bone marrow derived cell (GFP+ cells) invasion and incorporation into tumor blood vessels (CD31+ cells). Tumors were also evaluated for necrosis by green fluorescence, as necrotic tissue is auto-fluorescent under GFP (fluorescent) channel.

[3] = tested on: MeWo human melanoma cells; experiment: MeWo melanoma tumors (500 mm^3) in nude mice: SDF-1/CXCR4 staining, necrosis, hypoxia, perfusion; type: in vivo; settings: day 4
Experimental: MeWo human melanoma cells were implanted subdermally in nude mice. When tumors reached 500 mm^3, treatment with CA1P, AMD-3100 or the combination of the two drugs was initiated. CA1P was given as a single injection and AMD-3100 was given in a concentration of 5 mg/kg for 3 sequential days. On day 4, mice were sacrificed and tumors harvested for evaluation of the expression of human SDF-1 and mouse CXCR4, as well as tumor necrosis, hypoxia and vessel perfusion.
Longitudinal tumor sections were stained for either SDF-1 or mouse CXCR4 expression.
FIG. 2 provides a statistical quantification of the relative necrosis area in all tumors from treated and untreated mice. Hypoxic tumor area and perfused tumor area was also measured for all treated and untreated tumors using pimonidazole and Hoechst staining respectively (see FIG. 3).

[4] = tested on: SDF-1; experiment: Plasma SDF-1 by ELISA in nude mice after VDA treatment; type: in vivo; settings: both tumor-free and 500 mm^3 MeWo tumor-bearing nude mice; 4 hours after treatment
Experimental: To investigate the possibility that systemic induction of SDF-1 is involved in the acute mobilization of CEPs by VDA treatment, plasma from non-tumor or 500 mm^3 MeWo human melanoma bearing nude mice obtained 4 hours after treatment with CA1P was analyzed for human and mouse SDF-1 using specific ELISAs. From this analysis, it was determined that an acute 2 fold increase in SDF-1 occurs in both tumor-free and tumor-bearing nude mice following CA1P treatment. […] Thus, there is a rapid host proangiogenic reaction in response to VDA treatment similar to that observed in mice.

[5] = tested on: SDF-1; experiment: Clinical data from cancer patients with advanced solid tumors treated with a VDA; type: in vivo, human; settings: 12 cancer patients with advanced solid tumors; 4 hours after treatment
[6] = MeWo tumors, CA1P single injection, AMD-3100 5 mg/kg for 3 sequential days

## c1cc(CN2CCCNCCNCCCNCC2)ccc1CN1CCCNCCNCCCNCC1 [AMD-3100, 1,1′-[1,4-phenylenebis(methylene)]-bis-1,4,8,11-tetra-azacyclotetradecane]
[1]
  CEP levels in peripheral blood: rapid and significant increases

## COc1cc(/C=C\c2ccc(OC)c(OP(=O)(O)O)c2OP(=O)(O)O)cc(OC)c1OC [CA1P, combretastatin A-1 diphosphate]
[1]
  CEP levels in peripheral blood: rapid and significant increases
[2]
  bone marrow derived (GFP+) cell homing to tumor site and incorporation into tumor blood vessels (CD31+): recruits bone marrow derived proangiogenic cells to tumors
[3]; MeWo tumor sections
  human SDF-1 levels in tumors: upregulation
  invasion of mouse CXCR4+ cells to the tumor site: invasion of mouse CXCR4+ cells to the tumor site
[3]; [6]
  tumor hypoxia (pimonidazole staining): ~12%
  tumor necrosis (area of total tumor area): ~30%
  tumor perfusion (Hoechst staining): ~7%
[4]
  increase in plasma SDF-1: 2 fold

## COc1ccc(/C=C\c2cc(OC)c(OC)c(OC)c2)cc1OP(=O)(O)O [CA4P, combretastatin A-4 phosphate]
[5]
  circulating SDF-1 plasma levels: substantially increased
  number of CD133 and CD34 positive cells: substantially increased
